We go through three molecules from patent US20240050449A1, “Use of Acetyltanshinone IIA in Preparation of Medicament for Treating Lung Cancer and Medicament for Treating Lung Cancer” (UNIVERSITY OF MACAU, priority 2022, published 2024).

A short description of data set [1]: Body weight, deaths and toxicity in the xenograft study. Conditions: 25 mg/kg intraperitoneally every 3 days for 31 days. The procedure:
(§1) Cell line xenograft experiments were performed in 6-week-old female nude mice, 4×10^6 A549 cells were mixed 1:1 with matrigel-basement membrane matrix (Corning) and injected subcutaneously into nude mice. Tumors were allowed to grow to around […] and mice were randomly selected to receive treatment with ATA (25 mg/kg) or Erlotinib (25 mg/kg) intraperitoneally every 3 days for 31 days. ATA was formulated with 25% ethanol, 60% PEG300 (Sigma-Aldrich), and 15% Tween 80 (Sigma-Aldrich). Erlotinib was formulated in 5% DMSO, 30% PEG300, 5% Tween 80 and 60% H2O. Mouse body weight and tumor volume were measured every 3 days by a scale and caliper. Tumor volume (mm^3) was calculated using the formula. π/6×length (mm)×[width (mm)]^2. At least 6 mice in the control and treatment groups were evaluated during the study. All mice were sacrificed after 31 days of drug treatment, tumors were collected, and tumor weights were recorded. All animal studies were conducted in accordance with the requirements of the Animal Research Ethics Committee of Macao University and in compliance with all relevant ethical requirements.
(§2) To determine if ATA could also produce the same effect in vivo, this example injected A549 cells subcutaneously into nude mice to form tumor xenografts. Mice were randomly assigned to three groups. When the size of each tumor increased to a volume of approximately 100 mm^3, mice were injected intraperitoneally with vehicle control, ATA (25 mg/kg), or Erlotinib (25 mg/kg) every 3 days for 31 days. The tumor size and body weight of each mouse were measured every 3 days until the end of the animal experiment on day 31.

In data set [2] the test system is H1650 cells. In words: MTT cell viability assay, H1650 cells. The class given is cell-based. Conditions: Homo sapiens, NCI-H1650, MTT, 72 h. The procedure: (§3) Cells were seeded at a density of 3×10^3 per well in 96-well plates, allowed to attach overnight, and treated with various concentrations of agent. After 72 h of treatment, 10 μL of MTT solution (5 mg/mL) was added to each well and cultured in the plate for 4 h. The crystallized formazan was dissolved in 100 μL of 10% (w/v) SDS and 0.01 mol/L HCl solution for 24 h, and then the value was read by spectrophotometry at 595 nm using a microplate reader.

For data set [3], the system named is A549 cells. In words: Transwell cell migration assay. The class given is cell-based. To be noted: 1 μM. The procedure:
(§4) Cell migration and invasion assays were performed in a transwell chamber (Corning, #3422) with a pore size of 8 μm. Cells were treated with different concentrations of ATA and Erlotinib for 48 h, then harvested and resuspended in a serum-free medium. Cells (1×10^4) were added to the upper side of the transwell chamber and fresh medium containing 10% FBS was added to the lower side. Cells were allowed to migrate from the upper side to the lower side of the chamber at 37° C. for 24 h. Membranes from the cell chamber were fixed with 4% paraformaldehyde for 20 min. The cells remaining on the upper side of the membrane were gently removed with a cotton swab and stained with 1% crystal violet for 20 min to stain the cells migrating to the other side of the transwell chamber. The membrane was then cut and fixed on a glass slide. The migrated cells on each slide were imaged with a Leica M165-FC microscope. For the transwell invasion assay, a Matrigel solution (Corning, #356230) was diluted to one-thirtieth with serum-free medium and applied to the upper side of the precoated chamber for 2 h, after the Matrigel had solidified, the cells were added to the upper side of the transwell chamber. The following procedure is identical to the migration assay. Migrated and invaded cells were quantified using ImageJ software.

The test system of data set [4] is H1975 cells. Description: MTT cell viability assay, H1975 cells. It counts as cell-based. To be noted: Homo sapiens, NCI-H1975, MTT, 72 h. The procedure: as §3
In data set [5] the test system is A549 cells. In words: MTT cell viability assay, A549 cells. The class given is cell-based. To be noted: Homo sapiens, MTT, 72 h. The procedure: as §3
The next data set relates to EGFR. Description: Western blot, EGFR protein levels in drug-resistant NSCLC cells. Conditions: A549 and H1650 cells, 2 μM, 48 h. The class given is cell-based. The protocol:
Cells were washed once with PBS and frozen in RIPA lysis buffer containing protease and phosphatase inhibitors (Sigma-Aldrich) for 30 min. After sonication and centrifugation, the total protein concentration was determined by protein assay using Bio-Rad concentrated dye reagent (Bio-Rad). Equal amounts of protein ([…]) from each sample were separated by SDS-PAGE and electrotransferred to nitrocellulose membranes (GE Healthcare). Detection was performed on the membrane with a 1:1000 dilution of specific primary antibody followed by incubation with a 1:2000 dilution of the HRP conjugated secondary antibody. Finally, immunoreactivity is detected with a chemiluminescent substrate (Clarity Western ECL substrate; Bio-Rad). […] Aurora A (#ab13824) and PLK1 (#ab189139) antibodies were from Abcam.

For data set [6], the system named is H1975 cells. In words: Spheroid formation experiment, H1975 cells. It counts as cell-based. Conditions: 2 μM, 0 to 8 days. From the text: The density of H1975 was 500 cells per well and the density of H1650 was 1000 cells per well in an ultra-low adhesion round bottom 96 well plate (Corning, #7007).
For data set [7], the system named is A549 cells. In words: Transwell Matrigel invasion assay. It counts as cell-based. Conditions: 1 μM. The procedure: as §4
Data set [8] has as its system drug-resistant NSCLC cells (A549, H358, H1975, H1650). In words: MTT assay, summary over all four cell lines. It counts as cell-based. To be noted: A549, H358, H1975, H1650; MTT, 72 h; read-out: IC50 values, range over the four cell lines. The protocol:
as §3

The test system of data set [9] is H1650 cells. In words: Spheroid formation experiment, H1650 cells. Conditions: 2 μM, 0 to 8 days.
A further data set deals with H358 cells. In words: MTT cell viability assay, H358 cells. The class given is cell-based. To be noted: Homo sapiens, NCI-H358, MTT, 72 h. The protocol:
as §3

Data set [10] has as its system A549 cell-derived xenograft tumors. Description: Mouse xenograft study. It counts as in vivo, nude mice. To be noted: 25 mg/kg intraperitoneally every 3 days, day 31. The protocol:
as §1, §2

A further data set deals with T1, p70S6K (Homo sapiens, UniProt P23443).
T1 construct: endogenous in cells; host or cells: A549, H358, H1975, H1650 for the Western blots
Description: Western blot, p70S6K protein levels in drug-resistant NSCLC cells. Conditions: A549 and H1650 cells, 2 μM, 48 h. The class given is cell-based. The protocol:
Cells were washed once with PBS and frozen in RIPA lysis buffer containing protease and phosphatase inhibitors (Sigma-Aldrich) for 30 min. After sonication and centrifugation, the total protein concentration was determined by protein assay using Bio-Rad concentrated dye reagent (Bio-Rad). Equal amounts of protein ([…]) from each sample were separated by SDS-PAGE and electrotransferred to nitrocellulose membranes (GE Healthcare). Detection was performed on the membrane with a 1:1000 dilution of specific primary antibody followed by incubation with a 1:2000 dilution of the HRP conjugated secondary antibody. Finally, immunoreactivity is detected with a chemiluminescent substrate (Clarity Western ECL substrate; Bio-Rad). EGFR (#4267S), MET (#8198S), p-Akt (#9271L), akt (#9272S), p-mTOR (#5536S), mTOR (#2983S), p-p70S6K (#9234S), p70S6K (#2708S), p-S6RP (#4857S), S6RP (#2217S), p-4E-BP1 (#9455S) antibodies. 4E-BP1 (#9644S), p53 (#2527S), p21 waf1/Cip1 (#2947S), survivin (#2808S), cyclin B1 (#12231S), cyclin D3 (#2936S) and GAPDH (#2118S) were purchased from Cell Signaling Technology. Aurora A (#ab13824) and PLK1 (#ab189139) antibodies were from Abcam.

A further data set relates to A549 and H1650 cells. In words: Protein synthesis rate (click-iT HPG Alexa Fluor 594 Protein Synthesis Assay Kit). The class given is cell-based. To be noted: 2 μM, 48 h. The protocol:
In FIG. 3 (A) is protein levels of p-Akt, Akt, p-mTOR, mTOR, p-p70S6K, p70S6K, p-S6RP, and S6RP determined by Western blot analysis for A549, H358, H1975, and H1650 cells treated with ATA (1 or 2 μM) for 48 h. (B) is A549 and H1650 cells treated with ATA (1 or 2 μM) or the protein synthesis inhibitor […] (CHX, 35 μM), respectively, for 48 h. The rate of protein synthesis was determined using the click-iT™ HPG Alexa Fluor™ 594 Protein Synthesis Assay Kit. The intensity of Texas Red fluorescence in the stained image represents the rate of protein synthesis. Quantification of the rate of protein synthesis is shown. ****P<0.0001 was based on a one-way analysis of variance followed by Tukey's multiple comparison test. Scale bar, 50 μm. […] Protein levels of p-p70S6K. p70S6K. p-S6RP, and S6RP were determined by Western blot analysis. […] The rate of protein synthesis was determined using the click-iT™ HPG Alexa Fluor™ 594 Protein Synthesis Assay Kit. The intensity of Texas Red fluorescence in the stained image represents the rate of protein synthesis. Quantification of the rate of protein synthesis is shown. *P<0.05 and **P<0.01 were based on a one-way analysis of variance followed by Tukey's multiple comparison test. […] Protein levels of p70S6K. p-p70S6K, S6RP, and p-S6RP were determined by Western blot analysis. […] Data are expressed as the mean±SD of three independent experiments.

Molecules are shown by their SMILES.

T1 sequence (P23443 whole entry): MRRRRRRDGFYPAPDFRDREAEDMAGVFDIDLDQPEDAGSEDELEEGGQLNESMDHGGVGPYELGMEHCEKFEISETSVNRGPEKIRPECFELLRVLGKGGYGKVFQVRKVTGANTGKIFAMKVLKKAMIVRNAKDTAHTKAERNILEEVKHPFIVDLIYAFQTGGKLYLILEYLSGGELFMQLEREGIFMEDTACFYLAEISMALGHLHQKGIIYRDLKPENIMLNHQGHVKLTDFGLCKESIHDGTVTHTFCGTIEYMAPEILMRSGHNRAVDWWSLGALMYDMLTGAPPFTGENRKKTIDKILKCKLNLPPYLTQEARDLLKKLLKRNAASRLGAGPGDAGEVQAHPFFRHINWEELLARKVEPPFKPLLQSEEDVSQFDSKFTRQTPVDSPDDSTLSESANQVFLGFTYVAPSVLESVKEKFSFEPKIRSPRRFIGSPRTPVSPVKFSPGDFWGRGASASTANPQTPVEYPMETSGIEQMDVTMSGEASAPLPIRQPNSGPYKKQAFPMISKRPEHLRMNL

Consider `C#Cc1cccc(Nc2ncnc3cc(OCCOC)c(OCCOC)cc23)c1` [Erlotinib, reference compound], for which the “deaths during the treatment period” value in [1] is “no mice died”. In [1], the “weight of nude mice compared between groups” value is given as “no difference”. Also, the concentration for half-maximal inhibition (IC50) with H1650 cells [2] was 22.1 ± 0.59 µM; in the data set with H1975 cells [4] it was 10.6 ± 1.27 µM; with A549 cells [5], 19.6 ± 0.28 µM; in data set [8] it was 10 to 22 µM; with H358 cells, 21.5 ± 1.47 µM. Further, the “reduction of migration ability” value in the data set on A549 cells [3] is “did not”. For the same molecule, the “protein levels of EGFR” value with EGFR was “significantly increased”. Also, the “spheroid growth / sphere size” value is recorded as “did not decrease but significantly increased” in the data set with H1975 cells [6] and “less inhibition in H1650 cells than ATA” in the data set with H1650 cells [9]. Moreover, in the data set on A549 cells [7], the “reduction of invasion ability” value is given as “did not”. Further, in data set [10], the “reduction of tumor size compared to the control group” value turned out to be 32.5%. Besides, the “reduction of tumor weight” value in data set [10] is listed as “did not significantly reduce”.
For `CCc1cncnc1N1CCN(Cc2nc3ccc(C(F)(F)F)cc3[nH]2)CC1` [PF-4708671, reference compound], the “levels of p70S6K” value on p70S6K is on record as “did not decrease”. Besides, in the data set on A549 and H1650 cells, the “reduction (inhibition ratio) of protein synthesis” value is given as “did not affect”.
As for `CO[C@H]1C[C@@H]2CC[C@@H](C)[C@@](O)(O2)C(=O)C(=O)N2CCCC[C@H]2C(=O)O[C@H]([C@H](C)C[C@@H]2CC[C@@H](O)[C@H](OC)C2)CC(=O)[C@H](C)/C=C(\C)[C@@H](O)[C@@H](OC)C(=O)[C@H](C)C[C@H](C)/C=C/C=C/C=C/1C` [Rapamycin, rapamycin], the “reduction (inhibition ratio) of protein synthesis” value with A549 and H1650 cells is given as 25-28%.
